pIC50: −log10 of the molar value.
Columns and labels:
NMDA NR1/NR2B receptor = target: T1, NMDA NR1/NR2B receptor (Homo sapiens, UniProt Q05586+Q13224); test: NMDA NR1/NR2B FLIPR calcium assay in HEK293 cells; format: cell-based; conditions: HEK293 with tetracyclin-inducible NR1/NR2B; 20 μM glycine/1 μM glutamate; compounds of the invention; read-out: IC50 (in vitro affinity as obtained in the FLIPR assay)
T1 construct: host or cells: HEK293, tetracycline-inducible
Procedure: A human HEK293 cell line with tetracyclin-inducible expression of NMDA NR1/NR2B receptor was used as a test system for compound efficacy and potency. The cell line was purchased from ChanTest, Catalog #CT6121. Compound activity was determined by measuring the effect of compounds on intracellular calcium concentration induced by glycine/glutamate agonism in a FLIPRtetra system (Molecular Devices).
The cells were obtained as frozen cells in cryo-vials and stored until use at −150° C. Cells were grown in culture medium (DMEM/F12, 10% FBS, 5 μg/mL Blasticidin, 150 μg/mL Zeozin, 500 μg/mL Geneticin). […] For sub-culturing the cells were detached from flasks by Versene. For the assay, cells were detached, washed twice with induction medium (DMEM/F12 without glutamine, 10% FBS, 2 μg/mL Tetracycline, 2 mM Ketamine) and seeded to 384 well pure coat amine plates (BD 359324, 50000 cells per well in 50 μl) 48 h prior to assay in induction medium.
The test compounds were dissolved in 100% DMSO at a concentration of 10 mM and in a first step diluted in DMSO to a concentration of 5 mM, followed by serial dilution steps in 100% DMSO. Dilution factor and number of dilution steps may vary according to needs. Typically 8 different concentrations by 1:5 dilutions were prepared in duplicate, further intermediate dilutions (1:37.5) of the substances were carried out with aqueous assay buffer (137 mM NaCl, 4 mM KCl, 1.8 mM CaCl, 10 mM HEPES, 10 mM Glucose, pH 7,4) resulting in a compound concentration 3 times above the final test concentration and DMSO at 2.7% resulting in 0.9% final DMSO concentration in the assay.
At the assay day cells were washed 3× with assay buffer, 10 μL buffer remained in the wells after washing. 10 μL Ca kit loading buffer (AAT Bioquest) was added to the cells and the plates were incubated with lid for 60 minutes at r.t. 20 μl assay buffer containing 60 μM glycine (20 μM final) and 3 μM glutamate (1 μM final) was added to column 1-23. Fluorescence (indicating the calcium influx as a result of the NR1/NR2B ion channel activation) was read on the FLIPRtetra device for 60 seconds to monitor the glutamate induced effects. After 2 minutes 20 μL of compound or controls (row 1-22) in assay buffer were carefully added to the wells. […] The average of 2 measurements at 5 minutes and 5 min 10 seconds after compound addition is calculated and further used for IC50 calculations. Each assay microtiter plate contained wells (in column 23 or 24) with DMSO controls instead of compound as controls for glycine/glutamate induced fluorescence (high controls) and wells with 1 μM of a reference NR2b NAM as low controls (Compound 22; reference: Layton, Mark E et al, ACS Chemical Neuroscience 2011, 2(7), 352-362).
The output file of the reader contains the well number and measured average fluorescence units. For data evaluation and calculation, the measurement of the low control was set as 0% control and the measurement of the high control was set as 100% control. The IC50 values were calculated using the standard 4 parameter logistic regression formula. Calculation: [y=(a−d)/(1+(x/c)^B)+d], a=low value, d=high value; x=conc M; c=IC50 M; b=slope.

human MDR1 (P-gp) = target: T2, human MDR1 (P-gp) (Homo sapiens, UniProt P08183); test: MDCK assay MDR-1 (p-GP) permeability; format: in vitro ADME; conditions: dog, MDCK-MDR1 monolayers; for efflux ratio at 2 h: pH 7.4, Papp (b-a)/Papp (a-b); for Papp A→B at 2 h: apical-to-basal, pH 7.4, 1 or 10 μM
T2 construct: expressed in transfected cells; host or cells: MDCKII (Madin-Darby canine kidney)
T2 sequence (P08183 whole entry): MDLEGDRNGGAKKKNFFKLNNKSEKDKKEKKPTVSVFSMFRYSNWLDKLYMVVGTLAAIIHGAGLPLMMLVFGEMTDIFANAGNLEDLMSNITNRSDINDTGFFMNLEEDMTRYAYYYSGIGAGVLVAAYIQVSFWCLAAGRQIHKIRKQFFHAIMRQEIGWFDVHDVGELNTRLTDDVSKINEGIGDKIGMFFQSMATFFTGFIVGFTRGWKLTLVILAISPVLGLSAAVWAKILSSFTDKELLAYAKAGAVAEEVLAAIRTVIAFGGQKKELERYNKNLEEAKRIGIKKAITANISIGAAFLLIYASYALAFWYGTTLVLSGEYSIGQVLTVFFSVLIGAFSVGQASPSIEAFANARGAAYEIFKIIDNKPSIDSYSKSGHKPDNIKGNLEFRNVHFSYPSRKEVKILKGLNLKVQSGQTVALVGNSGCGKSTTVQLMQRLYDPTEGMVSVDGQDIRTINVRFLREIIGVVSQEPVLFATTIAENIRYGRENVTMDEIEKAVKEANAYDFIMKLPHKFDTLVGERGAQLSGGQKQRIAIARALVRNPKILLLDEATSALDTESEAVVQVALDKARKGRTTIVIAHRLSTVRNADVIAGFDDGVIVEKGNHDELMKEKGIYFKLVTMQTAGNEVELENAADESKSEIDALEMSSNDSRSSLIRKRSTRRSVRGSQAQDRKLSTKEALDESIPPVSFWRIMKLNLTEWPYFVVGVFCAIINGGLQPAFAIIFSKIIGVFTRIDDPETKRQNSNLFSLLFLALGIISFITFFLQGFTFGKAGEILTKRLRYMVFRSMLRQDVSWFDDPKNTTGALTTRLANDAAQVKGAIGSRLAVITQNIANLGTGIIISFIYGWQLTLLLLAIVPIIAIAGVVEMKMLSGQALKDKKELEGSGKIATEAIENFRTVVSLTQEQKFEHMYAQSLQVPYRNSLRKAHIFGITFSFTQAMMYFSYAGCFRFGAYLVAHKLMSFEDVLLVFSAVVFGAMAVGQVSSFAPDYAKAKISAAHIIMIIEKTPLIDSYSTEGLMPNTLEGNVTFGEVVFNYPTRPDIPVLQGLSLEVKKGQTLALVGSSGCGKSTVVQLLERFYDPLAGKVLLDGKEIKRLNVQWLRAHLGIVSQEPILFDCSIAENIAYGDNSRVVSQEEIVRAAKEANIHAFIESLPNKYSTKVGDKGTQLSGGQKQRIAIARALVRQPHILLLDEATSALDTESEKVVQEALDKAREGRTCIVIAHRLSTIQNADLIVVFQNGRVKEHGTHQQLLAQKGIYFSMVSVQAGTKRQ
Procedure: The MDCK assays provide information on the potential of a compound to pass the blood brain barrier. Permeability measurements across polarized, confluent MDCK-MDR1 cell monolayers grown on permeable filter supports are used as an in vitro absorption model: apparent permeability coefficients (PE) of the compounds across the MDCK-MDR1 cell monolayers are measured (pH 7.4, 37° C.) in apical-to-basal (AB) and basal-to-apical (BA) transport direction. The AB permeability (PEAB) represents drug absorption from the blood into the brain and the BA permeability (PEBA) drug efflux from the brain back into the blood via both, passive permeability as well as active transport mechanisms mediated by efflux and uptake transporters that are expressed on the MDCK-MDR1 cells, predominantly by the overexpressed human MDR1. Identical or similar permeabilities in both transport directions indicate passive permeation, vectorial permeability points to additional active transport mechanisms. Higher PEBA than PEAB (PEBA/PEAB>5) indicates the involvement of active efflux mediated by MDR1, which might compromise the goal to achieve sufficient brain exposure. Therefore, this assay provides valuable support for selection of compounds applicable for further in vivo testing. High permeability not limited by efflux at the blood brain barrier is a favourable characteristic for compounds that are to be used for drugs acting primarily in the CNS. Consequently, to ensure high permeability at the blood brain barrier, it is highly preferred to minimize the efflux (efflux<5) at MDR1 transporter.
Apparent permeability coefficients (Papp) of the compounds across the MDCK-MDR1 monolayers (MDCKII cells transfected with human MDR1 cDNA expression plasmid) are measured in apical-to-basal (AB) and basal-to-apical (BA) direction.
MDCK-MDR1 cells (6×10^5 cells/cm^2) are seeded on filter inserts (Corning, Transwell, polycarbonate, 0.4 μm pore size) and cultured for 9 to 10 days. Compounds dissolved in DMSO stock solution (1-20 mM) are diluted with HTP-4 aqueous buffer (128.13 mM NaCl, 5.36 mM KCl, 1 mM MgSO4, 1.8 mM CaCl2), 4.17 mM NaHCO3, 1.19 mM Na2HPO4, 0.41 mM NaH2PO4, 15 mM HEPES, 20 mM glucose, pH 7.4) supplemented with 0.25% BSA to prepare the transport solutions (final concentration: 1 or 10 μM, final DMSO <=0.5%). The transport solution is applied to the apical or basolateral donor side for measuring A-B or B-A permeability, respectively. The receiver side contains HTP-4 buffer supplemented with 0.25% BSA. Samples are collected at the start and end of experiment from the donor and at various time intervals for up to 2 hours also from the receiver side for concentration measurement by HPLC-MS/MS.
Sampled receiver volumes are replaced with fresh receiver solution. Efflux ratio is calculated dividing the Papp (b-a) values by the Papp (a-b) values.

[1] = Metabolic stability in human liver microsomes; format: in vitro ADME; conditions: pooled human liver microsomes, pH 7.6, 37° C., 1 mg/mL microsomal protein, 1 μM compound, NADPH 1 mM, read-out: Half-life - t½ human liver microsomes
Excerpt: Stability in human liver microsomes refers to the susceptibility of compounds to bio-transformation in the context of selecting and/or designing drugs with favorable pharmacokinetic properties. The primary site of metabolism for many drugs is the liver. Human liver microsomes contain the cytochrome P450s (CYPs), and thus represent a model system for studying drug metabolization in vitro. Enhanced stability in human liver microsomes is associated with several advantages, including increased bioavailability and adequate half-life, which can enable lower and less frequent dosing of patients. Thus, enhanced stability in human liver microsomes is a favorable characteristic for compounds that are to be used for drugs.
The metabolic degradation of the test compound was assayed at 37° C. with pooled human liver microsomes. The final incubation volume of […] per time point contains TRIS buffer pH 7.6 at room temperature (0.1 M), magnesium chloride (5 mM aqueous solution), microsomal protein (1 mg/mL for human) and the test compound at a final concentration of 1 μM. Following a short preincubation period at 37° C., the reactions were initiated by addition of betanicotinamide adenine dinucleotide phosphate, reduced form (NADPH, 1 mM), and terminated by transferring an aliquot into solvent after different time points. After centrifugation (10000 g, 5 min), an aliquot of the supernatant was assayed by LC-MS/MS for the amount of parent compound. The half-life was determined by the slope of the semi-logarithmic plot of the concentration-time profile.

T1 sequence (Q13224 27-1484, other chains not shown): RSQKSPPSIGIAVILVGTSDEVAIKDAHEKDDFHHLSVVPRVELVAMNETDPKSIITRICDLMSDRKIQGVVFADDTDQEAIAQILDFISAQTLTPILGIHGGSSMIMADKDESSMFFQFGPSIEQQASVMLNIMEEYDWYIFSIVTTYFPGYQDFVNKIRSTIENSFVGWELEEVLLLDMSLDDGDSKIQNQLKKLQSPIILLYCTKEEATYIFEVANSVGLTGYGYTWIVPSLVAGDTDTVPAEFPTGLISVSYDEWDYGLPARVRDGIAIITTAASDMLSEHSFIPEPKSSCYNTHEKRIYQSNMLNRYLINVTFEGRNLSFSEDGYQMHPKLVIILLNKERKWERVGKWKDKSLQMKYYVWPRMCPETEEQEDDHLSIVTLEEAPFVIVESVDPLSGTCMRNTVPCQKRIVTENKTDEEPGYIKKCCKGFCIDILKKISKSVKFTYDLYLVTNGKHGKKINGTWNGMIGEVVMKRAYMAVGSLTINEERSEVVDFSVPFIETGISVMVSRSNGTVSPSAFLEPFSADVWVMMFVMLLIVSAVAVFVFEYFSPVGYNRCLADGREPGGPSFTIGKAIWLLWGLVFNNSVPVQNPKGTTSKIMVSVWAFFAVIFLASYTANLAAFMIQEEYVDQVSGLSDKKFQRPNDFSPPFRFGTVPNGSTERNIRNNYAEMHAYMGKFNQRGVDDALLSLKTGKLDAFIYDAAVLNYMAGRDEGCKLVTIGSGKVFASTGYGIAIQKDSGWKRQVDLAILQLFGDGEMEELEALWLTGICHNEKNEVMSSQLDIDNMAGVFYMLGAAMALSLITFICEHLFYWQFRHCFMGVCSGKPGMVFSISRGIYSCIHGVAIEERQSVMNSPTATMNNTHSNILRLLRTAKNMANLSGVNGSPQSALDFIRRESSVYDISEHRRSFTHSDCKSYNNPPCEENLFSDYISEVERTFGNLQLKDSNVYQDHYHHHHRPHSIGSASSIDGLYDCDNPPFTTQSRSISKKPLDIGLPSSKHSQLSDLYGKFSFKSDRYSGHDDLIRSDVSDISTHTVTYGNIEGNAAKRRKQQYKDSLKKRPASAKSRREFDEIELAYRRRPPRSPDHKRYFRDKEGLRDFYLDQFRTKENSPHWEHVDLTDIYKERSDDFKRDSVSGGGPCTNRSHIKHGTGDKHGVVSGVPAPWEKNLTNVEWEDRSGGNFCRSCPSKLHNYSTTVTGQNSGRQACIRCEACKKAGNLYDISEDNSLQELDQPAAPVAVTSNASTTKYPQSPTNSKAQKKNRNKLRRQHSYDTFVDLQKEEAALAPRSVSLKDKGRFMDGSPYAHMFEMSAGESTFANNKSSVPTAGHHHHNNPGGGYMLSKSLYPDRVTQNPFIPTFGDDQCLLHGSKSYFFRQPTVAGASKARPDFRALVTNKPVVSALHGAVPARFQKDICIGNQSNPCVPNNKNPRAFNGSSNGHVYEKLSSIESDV

Row | SMILES | pIC50 (NMDA NR1/NR2B receptor) | efflux ratio at 2 h (human MDR1 (P-gp)) | Papp A→B at 2 h (human MDR1 (P-gp)) [×10⁻⁶ cm/s] | half-life at 1 μM [1] [min]
1 | Cc1ccc(COC(=O)N2CCO[C@H](c3nc4nccnc4[nH]3)C2)c(F)c1 [Example 1] | 7.05 | 1.6 | 33 | 31.5
2 | Cc1cccc(COC(=O)N2CCO[C@H](c3nc4nccnc4[nH]3)C2)c1F [Example 3] | 6.14 | 0.7 | 61 | 8
3 | O=C(OCc1ccccc1F)N1CCO[C@H](c2nc3nccnc3[nH]2)C1 [Example 4] | 6.42 | 0.8 | 57 | > 130
4 | O=C(OCc1ccc(F)cc1F)N1CCO[C@H](c2nc3nccnc3[nH]2)C1 [Example 5] | 6.32 | 1.4 | 40 | > 130
5 | O=C(OCc1ccc(F)cc1)N1CCO[C@H](c2nc3nccnc3[nH]2)C1 [Example 10] | 6.13 | 2.9 | 23 | > 130
6 | Cc1ccc(COC(=O)N2CCO[C@H](c3nc4nccnc4[nH]3)C2)cc1 [Example 12] | 6.68 | 1.8 | 31 | 36

From patent US12398143B2, “Imidazopyrazine derivatives and the use thereof as medicament” (Boehringer Ingelheim International GmbH, priority 2019, dated 2025)
